In brackets after ≈: the same amount, converted by molar mass. Values belong to the compound of their own block, whether it stands above or below them.
Tests used:
[1] = Drug metabolism in iv or po dosed Sprague-Dawley rat plasma assessed as oxidation of pyridine ring by LC-MS/MS method; type: ADME, organism-based; settings: in vivo
[2] = Kinetic solubility of the compound in FaSSIF at pH 6.5 after 20 hrs by shake flask method; type: physicochemical; settings: read-out: Kinetic_solubility
[3] = Drug metabolism in iv or po dosed Sprague-Dawley rat plasma assessed as oxidation of phenyl ring by LC-MS/MS method; type: ADME, organism-based; settings: in vivo
[4] = Kinetic solubility of the compound in HCl at pH 2 after 20 hrs by shake flask method; type: physicochemical; settings: read-out: Kinetic_solubility
[5] = Kinetic solubility of the compound in phosphate buffered saline at pH 6.5 after 20 hrs by shake flask method; type: physicochemical; settings: read-out: Kinetic_solubility
[6] = AUC (0 to 23 hrs) in NOD-scid IL-2Rgamma-null mouse model engrafted with Plasmodium falciparum 3D7 infected human erythrocytes at 50 mg/kg administered via oral gavage by LC-MS/MS method; type: ADME, organism-based; set-up: dose 50 mg/kg, time < 23 hr, route oral; settings: in vivo
[7] = Tmax in NOD-scid IL-2Rgamma-null mouse model engrafted with Plasmodium falciparum 3D7 infected human erythrocytes at 25 mg/kg administered via oral gavage measured over 23 hrs post first dose by LC-MS/MS method; type: ADME, organism-based; settings: in vivo
Rattus norvegicus [8] = assay: Dose normalized AUC (0 to infinity) in Sprague-Dawley rat at 5 mg/kg, iv administered as 2 mins of infusion by LC-MS/MS method; type: ADME, organism-based; settings: in vivo
[9] = Tmax in NOD-scid IL-2Rgamma-null mouse model engrafted with Plasmodium falciparum 3D7 infected human erythrocytes at 50 mg/kg administered via oral gavage measured over 23 hrs post first dose by LC-MS/MS method; type: ADME, organism-based; settings: in vivo
Mus musculus [10] = assay: Dose normalized AUC (0 to 23 hrs) in NOD-scid IL-2Rgamma-null mouse model engrafted with Plasmodium falciparum 3D7 infected human erythrocytes at 5 mg/kg administered via oral gavage by LC-MS/MS method; type: ADME, organism-based; settings: in vivo
Mus musculus [11] = assay: Dose normalized Cmax in NOD-scid IL-2Rgamma-null mouse model engrafted with Plasmodium falciparum 3D7 infected human erythrocytes at 25 mg/kg administered via oral gavage measured over 23 hrs post first dose by LC-MS/MS method; type: ADME, organism-based; settings: in vivo
Mus musculus [12] = assay: Dose normalized AUC (0 to 23 hrs) in NOD-scid IL-2Rgamma-null mouse model engrafted with Plasmodium falciparum 3D7 infected human erythrocytes at 10 mg/kg administered via oral gavage by LC-MS/MS method; type: ADME, organism-based; settings: in vivo
[13] = Tmax in BALB/c mouse at 10 mg/kg administered via oral gavage as bolus dose by LC-MS/MS method; type: ADME, organism-based; settings: in vivo
Mus musculus [14] = assay: Dose normalized AUC (0 to infinity) in BALB/c mouse at 10 mg/kg administered via oral gavage as bolus dose by LC-MS/MS method; type: ADME, organism-based; settings: in vivo
[15] = Cmax in NOD-scid IL-2Rgamma-null mouse model engrafted with Plasmodium falciparum 3D7 infected human erythrocytes at 10 mg/kg administered via oral gavage measured over 23 hrs post first dose by LC-MS/MS method; type: ADME, organism-based; set-up: dose 10 mg/kg, route oral; settings: in vivo
Mus musculus [16] = assay: Dose normalized AUC (0 to 23 hrs) in NOD-scid IL-2Rgamma-null mouse model engrafted with Plasmodium falciparum 3D7 infected human erythrocytes at 25 mg/kg via oral gavage by LC-MS/MS method; type: ADME, organism-based; settings: in vivo
[17] = Cmax in Sprague-Dawley rat at 5 mg/kg, iv administered as 2 mins of infusion by LC-MS/MS method; type: ADME, organism-based; set-up: dose 5 mg/kg, route intravenous; settings: in vivo
[18] = AUC (0 to 23 hrs) in NOD-scid IL-2Rgamma-null mouse model engrafted with Plasmodium falciparum 3D7 infected human erythrocytes at 25 mg/kg administered via oral gavage by LC-MS/MS method; type: ADME, organism-based; set-up: time < 23 hr, dose 25 mg/kg, route oral; settings: in vivo
[19] = AUC (0 to 23 hrs) in NOD-scid IL-2Rgamma-null mouse model engrafted with Plasmodium falciparum 3D7 infected human erythrocytes at 5 mg/kg administered via oral gavage by LC-MS/MS method; type: ADME, organism-based; set-up: dose 5 mg/kg, time < 23 hr, route oral; settings: in vivo
[20] = Tmax in NOD-scid IL-2Rgamma-null mouse model engrafted with Plasmodium falciparum 3D7 infected human erythrocytes at 5 mg/kg administered via oral gavage measured over 23 hrs post first dose by LC-MS/MS method; type: ADME, organism-based; settings: in vivo
[21] = Cmax in NOD-scid IL-2Rgamma-null mouse model engrafted with Plasmodium falciparum 3D7 infected human erythrocytes at 50 mg/kg administered via oral gavage measured over 23 hrs post first dose by LC-MS/MS method; type: ADME, organism-based; set-up: dose 50 mg/kg, route oral; settings: in vivo
Mus musculus [22] = assay: Dose normalized Cmax in NOD-scid IL-2Rgamma-null mouse model engrafted with Plasmodium falciparum 3D7 infected human erythrocytes at 10 mg/kg administered via oral gavage measured over 23 hrs post first dose by LC-MS/MS method; type: ADME, organism-based; settings: in vivo
[23] = Oral bioavailability in Sprague-Dawley rat at 20 mg/kg administered via gavage as bolus dose by LC-MS/MS method; type: ADME, organism-based; settings: in vivo
Mus musculus [24] = assay: Dose normalized Cmax in NOD-scid IL-2Rgamma-null mouse model engrafted with Plasmodium falciparum 3D7 infected human erythrocytes at 5 mg/kg administered via oral gavage measured over 23 hrs post first dose by LC-MS/MS method; type: ADME, organism-based; settings: in vivo
[25] = Cmax in Sprague-Dawley rat at 20 mg/kg administered via oral gavage as bolus dose by LC-MS/MS method; type: ADME, organism-based; set-up: dose 20 mg/kg, route oral; settings: in vivo
[26] = Cmax in NOD-scid IL-2Rgamma-null mouse model engrafted with Plasmodium falciparum 3D7 infected human erythrocytes at 25 mg/kg administered via oral gavage measured over 23 hrs post first dose by LC-MS/MS method; type: ADME, organism-based; set-up: dose 25 mg/kg, route oral; settings: in vivo
[27] = AUC (0 to 23 hrs) in NOD-scid IL-2Rgamma-null mouse model engrafted with Plasmodium falciparum 3D7 infected human erythrocytes at 10 mg/kg administered via oral gavage by LC-MS/MS method; type: ADME, organism-based; set-up: dose 10 mg/kg, time < 23 hr, route oral; settings: in vivo
Rattus norvegicus [28] = assay: Dose normalized AUC (0 to infinity) in Sprague-Dawley rat at 20 mg/kg administered via oral gavage as bolus dose by LC-MS/MS method; type: ADME, organism-based; settings: in vivo
Mus musculus [29] = assay: Dose normalized AUC (0 to 23 hrs) in NOD-scid IL-2Rgamma-null mouse model engrafted with Plasmodium falciparum 3D7 infected human erythrocytes at 50 mg/kg administered via oral gavage by LC-MS/MS method; type: ADME, organism-based; settings: in vivo
Mus musculus [30] = assay: Dose normalized Cmax in NOD-scid IL-2Rgamma-null mouse model engrafted with Plasmodium falciparum 3D7 infected human erythrocytes at 50 mg/kg administered via oral gavage measured over 23 hrs post first dose by LC-MS/MS method; type: ADME, organism-based; settings: in vivo
[31] = Tmax in NOD-scid IL-2Rgamma-null mouse model engrafted with Plasmodium falciparum 3D7 infected human erythrocytes at 10 mg/kg administered via oral gavage measured over 23 hrs post first dose by LC-MS/MS method; type: ADME, organism-based; settings: in vivo
[32] = Cmax in NOD-scid IL-2Rgamma-null mouse model engrafted with Plasmodium falciparum 3D7 infected human erythrocytes at 5 mg/kg administered via oral gavage measured over 23 hrs post first dose by LC-MS/MS method; type: ADME, organism-based; set-up: dose 5 mg/kg, route oral; settings: in vivo
[33] = Tmax in Sprague-Dawley rat at 20 mg/kg administered via oral gavage as bolus dose by LC-MS/MS method; type: ADME, organism-based; settings: in vivo
[34] = Volume of distribution in Sprague-Dawley rat at 5 mg/kg, iv administered as 2 mins of infusion by LC-MS/MS method; type: ADME, organism-based; settings: in vivo
[35] = Cmax in BALB/c mouse at 10 mg/kg administered via oral gavage as bolus dose by LC-MS/MS method; type: ADME, organism-based; set-up: dose 10 mg/kg, route oral; settings: in vivo
[36] = Drug metabolism in iv or po dosed BALB/c mouse plasma assessed as oxidation of cyclopentane ring by LC-MS/MS method; type: ADME, organism-based; settings: in vivo
[37] = Drug metabolism in iv or po dosed BALB/c mouse plasma assessed as oxidation and dehydrogenation of cyclopentane ring by LC-MS/MS method; type: ADME, organism-based; settings: in vivo
[38] = Drug metabolism in iv or po dosed BALB/c mouse plasma assessed as dioxidation of cyclopentane ring by LC-MS/MS method; type: ADME, organism-based; settings: in vivo

- solubility kinetic at 20 h [2]: 50 to 100 µM (≈ 18.7 to 37.3 µg/mL)
- solubility kinetic at 20 h [4]: 7 µM (≈ 2.61 µg/mL)
- solubility kinetic at 20 h [5]: < 5 µM
Compound: Fc1ccc(-c2nc3cnc(Nc4ccccn4)cc3[nH]2)cc1C(F)(F)F

- Drug metabolism [36]: Metabolite_Detected
- solubility kinetic at 20 h [2]: 85 µM (≈ 29.5 µg/mL)
- Drug metabolism [37]: Metabolite_Detected
- solubility kinetic at 20 h [4]: 132 µM (≈ 45.8 µg/mL)
- Drug metabolism [38]: Metabolite_Detected
- solubility kinetic at 20 h [5]: 145 µM (≈ 50.4 µg/mL)
Compound: FC(F)(F)c1ccc(Nc2cc3[nH]c(C4CCCC4)nc3cn2)nc1

The next lines start with the compound.

Compound: Fc1ccc(Nc2cc3[nH]c(-c4ccc(F)c(F)c4)nc3cn2)nc1
- Drug metabolism [1]: Metabolite_Detected
- solubility kinetic at 20 h [2]: 50 to 100 µM (≈ 17.1 to 34.1 µg/mL)
- Drug metabolism [3]: Metabolite_Notdetected
- solubility kinetic at 20 h [4]: 42 µM (≈ 14.3 µg/mL)
- solubility kinetic at 20 h [5]: < 5 µM

Compound: Fc1ccc(Nc2cc3[nH]c(-c4ccc(F)c(C(F)(F)F)c4)nc3cn2)nc1
- AUC(0-t) at 23 h [6]: 84100 ng·h/mL
- Drug metabolism [1]: Metabolite_Detected
- Tmax [7]: 4 h
- AUC/dose (Rattus norvegicus [8]): 1692 µM·min
- Tmax [9]: 2 to 4 h
- AUC/dose (Mus musculus [10]): 1.302 µg·h/mL/mg/kg
- Cmax/dose (Mus musculus [11]): 0.155 µg/mL/mg/kg
- AUC/dose (Mus musculus [12]): 1.686 µg·h/mL/mg/kg
- Tmax [13]: 1.7 h
- AUC/dose (Mus musculus [14]): 2622 µM·min
- Cmax [15]: 1580 ng/mL
- AUC/dose (Mus musculus [16]): 1.632 µg·h/mL/mg/kg
- Cmax [17]: 5.4 µM
- solubility kinetic at 20 h [2]: 50 to 100 µM (≈ 19.6 to 39.1 µg/mL)
- Drug metabolism [3]: Metabolite_Notdetected
- AUC(0-t) at 23 h [18]: 32600 ng·h/mL
- AUC(0-t) at 23 h [19]: 6510 ng·h/mL
- Tmax [20]: 4 to 6 h
- Cmax [21]: 4860 ng/mL
- Cmax/dose (Mus musculus [22]): 0.158 µg/mL/mg/kg
- bioavailability [23]: 88%
- solubility kinetic at 20 h [4]: 13 µM (≈ 5.09 µg/mL)
- Cmax/dose (Mus musculus [24]): 0.115 µg/mL/mg/kg
- Cmax [25]: 4.7 µM
- Cmax [26]: 3090 ng/mL
- AUC(0-t) at 23 h [27]: 16900 ng·h/mL
- AUC/dose (Rattus norvegicus [28]): 5923 µM·min
- AUC/dose (Mus musculus [29]): 1.681 µg·h/mL/mg/kg
- Cmax/dose (Mus musculus [30]): 0.097 µg/mL/mg/kg
- Tmax [31]: 4 h
- solubility kinetic at 20 h [5]: < 5 µM
- Cmax [32]: 573 ng/mL
- Tmax [33]: 12 h
- Vd [34]: 2.3 L/kg
- Cmax [35]: 4 µM

Compound: FC(F)(F)c1ccc(Nc2cc3[nH]c(-c4cccc(C(F)(F)F)c4)nc3cn2)nc1
- Drug metabolism [1]: Metabolite_Detected
- solubility kinetic at 20 h [2]: 50 to 100 µM (≈ 21.2 to 42.3 µg/mL)
- Drug metabolism [3]: Metabolite_Notdetected
- solubility kinetic at 20 h [4]: < 5 µM
- solubility kinetic at 20 h [5]: < 5 µM
